From ChEMBL document CHEMBL1201862, “PubChem BioAssay data set” (2004)
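In this assay, cells in 96-well plates receive the compound at five concentrations for 48 hours. Endpoints are linearly interpolated between the surrounding concentrations. GI50 = concentration required for 50% inhibition of growth.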 The source made the active and inactive calls. No stated cut-off is given here; in the data, active = GI50 up to about 1.1 µM and inactive = higher.

Columns and labels:
Assay in all cases: NCI-60 cell line screen, 48 h
786-0 = test system: 786-0
A498 = test system: A498
A549 = test system: A549
ACHN = test system: ACHN
CAKI-1 = test system: CAKI-1
CCRF-CEM = test system: CCRF-CEM
COLO 205 = test system: COLO 205
DLD-1 = test system: DLD-1
DMS-114 = test system: DMS-114
DMS-273 = test system: DMS-273
EKVX = test system: EKVX
HCC 2998 = test system: HCC 2998
HCT-116 = test system: HCT-116
HCT-15 = test system: HCT-15
HL-60 = test system: HL-60
HOP-62 = test system: HOP-62
HOP-92 = test system: HOP-92
HT-29 = test system: HT-29
IGROV-1 = test system: IGROV-1
K562 = test system: K562
KM12 = test system: KM12
LOX IMVI = test system: LOX IMVI
LXFL 529 = test system: LXFL 529
M14 = test system: M14
M19-MEL = test system: M19-MEL
MOLT-4 = test system: MOLT-4
Malme-3M = test system: Malme-3M
NCI-H23 = test system: NCI-H23
NCI-H460 = test system: NCI-H460
NCI-H522 = test system: NCI-H522
OVCAR-3 = test system: OVCAR-3
OVCAR-4 = test system: OVCAR-4
OVCAR-8 = test system: OVCAR-8
RXF 393 = test system: RXF 393
RXF 631 = test system: RXF 631
SF-268 = test system: SF-268
SF-295 = test system: SF-295
SF-539 = test system: SF-539
SK-MEL-28 = test system: SK-MEL-28
SK-MEL-2 = test system: SK-MEL-2
SK-MEL-5 = test system: SK-MEL-5
SK-OV-3 = test system: SK-OV-3
SN12C = test system: SN12C
SNB-75 = test system: SNB-75
SNB-78 = test system: SNB-78
SR = test system: SR
SW-620 = test system: SW-620
TK-10 = test system: TK-10
U-251 = test system: U-251
UACC-257 = test system: UACC-257
UACC-62 = test system: UACC-62
XF498 = test system: XF498
HOP-18 = test system: HOP-18
KM-20L2 = test system: KM-20L2
OVCAR-5 = test system: OVCAR-5
SNB-19 = test system: SNB-19
UO-31 = test system: UO-31

Cc1cccc(/C=N/N=C(\N)NO)n1
GI50 (786-0): 36.8 µM (inactive) | GI50 (A498): > 100 µM (inactive) | GI50 (A549): 13.4 µM (inactive) | GI50 (ACHN): 27.3 µM (inactive) | GI50 (CAKI-1): 20.8 µM (inactive) | GI50 (CCRF-CEM): 42.5 µM (inactive) | GI50 (COLO 205): > 100 µM (inactive) | GI50 (DLD-1): 18.7 µM (inactive) | GI50 (DMS-114): 12.1 µM (inactive) | GI50 (DMS-273): 35.7 µM (inactive) | GI50 (EKVX): 37.3 µM (inactive) | GI50 (HCC 2998): 83.8 µM (inactive) | GI50 (HCT-116): > 100 µM (inactive) | GI50 (HCT-15): > 10 µM | GI50 (HL-60): 32.4 µM (inactive) | GI50 (HOP-62): 17.1 µM (inactive) | GI50 (HOP-92): 26.1 µM (inactive) | GI50 (HT-29): 48.4 µM (inactive) | GI50 (IGROV-1): 7.26 µM (inactive) | GI50 (K562): 33.5 µM (inactive) | GI50 (KM12): 14.4 µM (inactive) | GI50 (LOX IMVI): 5.73 µM (inactive) | GI50 (LXFL 529): 6.52 µM (inactive) | GI50 (M14): 41.5 µM (inactive) | GI50 (M19-MEL): 68.7 µM (inactive) | GI50 (MOLT-4): 51.4 µM (inactive) | GI50 (Malme-3M): > 100 µM (inactive) | GI50 (NCI-H23): > 100 µM (inactive) | GI50 (NCI-H460): 26.9 µM (inactive) | GI50 (NCI-H522): 37.8 µM (inactive) | GI50 (OVCAR-3): > 100 µM (inactive) | GI50 (OVCAR-4): 28.2 µM (inactive) | GI50 (OVCAR-8): 58.7 µM (inactive) | GI50 (RXF 393): > 100 µM (inactive) | GI50 (RXF 631): > 100 µM (inactive) | GI50 (SF-268): 16.1 µM (inactive) | GI50 (SF-295): 22.8 µM (inactive) | GI50 (SF-539): 26.7 µM (inactive) | GI50 (SK-MEL-28): > 100 µM (inactive) | GI50 (SK-MEL-2): 50 µM (inactive) | GI50 (SK-MEL-5): 27.5 µM (inactive) | GI50 (SK-OV-3): 19.9 µM (inactive) | GI50 (SN12C): > 100 µM (inactive) | GI50 (SNB-75): 20.5 µM (inactive) | GI50 (SNB-78): > 100 µM (inactive) | GI50 (SR): 42.4 µM (inactive) | GI50 (SW-620): 74.5 µM (inactive) | GI50 (TK-10): > 100 µM (inactive) | GI50 (U-251): 78.7 µM (inactive) | GI50 (UACC-257): > 100 µM (inactive) | GI50 (UACC-62): 2.12 µM (inactive) | GI50 (XF498): 39.4 µM (inactive)

Cc1ccc(S(=O)(=O)N2CCN(C=S)CC2)cc1
GI50 (786-0): > 100 µM (inactive) | GI50 (A498): > 100 µM (inactive) | GI50 (A549): > 100 µM (inactive) | GI50 (ACHN): > 100 µM (inactive) | GI50 (CCRF-CEM): > 100 µM (inactive) | GI50 (COLO 205): > 100 µM (inactive) | GI50 (DLD-1): > 100 µM (inactive) | GI50 (DMS-114): > 100 µM (inactive) | GI50 (DMS-273): > 100 µM (inactive) | GI50 (EKVX): > 100 µM (inactive) | GI50 (HCC 2998): > 100 µM (inactive) | GI50 (HCT-116): > 100 µM (inactive) | GI50 (HCT-15): > 100 µM | GI50 (HL-60): > 100 µM (inactive) | GI50 (HOP-18): > 100 µM (inactive) | GI50 (HOP-62): > 100 µM (inactive) | GI50 (HT-29): > 100 µM (inactive) | GI50 (IGROV-1): > 100 µM (inactive) | GI50 (K562): > 100 µM (inactive) | GI50 (KM-20L2): > 100 µM (inactive) | GI50 (KM12): > 100 µM (inactive) | GI50 (LOX IMVI): > 100 µM (inactive) | GI50 (LXFL 529): > 100 µM (inactive) | GI50 (M14): > 100 µM (inactive) | GI50 (M19-MEL): > 100 µM (inactive) | GI50 (MOLT-4): > 100 µM (inactive) | GI50 (Malme-3M): > 100 µM (inactive) | GI50 (NCI-H23): > 100 µM (inactive) | GI50 (NCI-H460): > 100 µM (inactive) | GI50 (NCI-H522): > 100 µM (inactive) | GI50 (OVCAR-3): > 100 µM (inactive) | GI50 (OVCAR-5): > 100 µM (inactive) | GI50 (OVCAR-8): > 100 µM (inactive) | GI50 (RXF 393): > 100 µM (inactive) | GI50 (RXF 631): > 100 µM (inactive) | GI50 (SF-268): > 100 µM (inactive) | GI50 (SF-539): > 100 µM (inactive) | GI50 (SK-MEL-28): > 100 µM (inactive) | GI50 (SK-MEL-2): > 100 µM (inactive) | GI50 (SK-MEL-5): > 100 µM (inactive) | GI50 (SK-OV-3): > 100 µM (inactive) | GI50 (SN12C): > 100 µM (inactive) | GI50 (SNB-19): > 100 µM (inactive) | GI50 (SNB-75): > 100 µM (inactive) | GI50 (SNB-78): > 100 µM (inactive) | GI50 (SR): > 100 µM (inactive) | GI50 (SW-620): > 100 µM (inactive) | GI50 (TK-10): > 100 µM (inactive) | GI50 (U-251): > 100 µM (inactive) | GI50 (UACC-257): > 100 µM (inactive) | GI50 (UACC-62): > 100 µM (inactive) | GI50 (UO-31): > 100 µM (inactive)
